Common to all, as to format: cell-based, human
The test system of test [1] is PANC-1 cells.
The test system of test [2] is MDA-MB-435 cells.
Test [3] relates to MDA-MB-435 cells. This is another data set of the same source.
The subject of a further test is A549 cell line. The test can be described thus: MYXV replication in the permissive A549 cell line.
Test [4] relates to PANC-1 cells. The source holds these as a separate data set.
For test [5], the system named is HT29 cells.
The subject of test [6] is PANC-1 cells. The source holds these as a separate data set.
Test [7] has as its system HT29 cells. This is another data set of the same source.

SMILES strings stand for the structures. Entries after “also recorded” stand apart in the source; their conditions may differ.

The record followed here is patent publication US12691151B2, “Methods and compositions for improving oncolytic virus infection for nonpermissive cancers” (Arizona Board of Regents on behalf of Arizona State …, priority 2019, dated 2026).

Regarding `CCC(=C/[C@H](C)C/C=C/C(C)=C/[C@@H](C)C(=O)[C@@H](C)[C@H](O)[C@@H](C)C/C(C)=C/C(=O)O)/C=C/[C@@H]1OC(=O)C=C[C@@H]1C` [Leptomycin B], the “viral replication (virus titer)” value was “enhanced MYXV gene expression and replication” in the test on PANC-1 cells [1]; “enhanced MYXV gene expression and replication” in the test on MDA-MB-435 cells [3]; “enhanced viral replication; also recorded: enhanced MYXV replication” in the test on HT29 cells [5]. The “GFP (early/late) and TdTomato (late) expression” value with MDA-MB-435 cells [2] is “enhanced GFP (early/late) and TdTomato (late) expression; also recorded: enhanced MYXV gene expression”; in the test with PANC-1 cells [4], “enhanced GFP (early/late) and TdTomato (late) expression; also recorded: enhanced MYXV gene expression”; in the test on HT29 cells [7], “enhanced MYXV early (GFP) and late (TdTomato) gene expression levels”. For the same compound, the formation of foci result in the test with MDA-MB-435 cells [2], with PANC-1 cells [4] and with HT29 cells [7] was “allowed formation of small foci” each time. Further, in the test on A549 cell line, the viral replication entry was “only increased viral replication at an MOI of 0.1 or lower”. Further, the “cell viability (ATP), Leptomycin B pretreatment plus MYXV” value in the test with PANC-1 cells [6] is reported as “further reduced the viability; also recorded: reduced cell viability”. Further, in the test on PANC-1 cells [6] (40 h), the “cell viability (ATP)” value is listed as “sensitive to Leptomycin B treatment alone”.
